{"source": "ChEMBL document CHEMBL5465560", "about": "“Selectivity Literature for EUbOPEN Chemogenomic Library” (2024)", "key": {"[1]": {"biological_target": "cAMP-dependent protein kinase catalytic subunit alpha (Homo sapiens, UniProt P17612)", "assay": "Selectivity interaction (Ambit KINOMEscan and KiNATiv profiling in Jurkat cells) EUB0000090b PRKACA", "assay_type": "cell-based", "conditions": "at 1 µM"}, "[2]": {"biological_target": "T1, Histone-lysine N-methyltransferase EHMT1 (Homo sapiens) (UniProt Q9H9B1)", "T1 sequence (whole entry)": "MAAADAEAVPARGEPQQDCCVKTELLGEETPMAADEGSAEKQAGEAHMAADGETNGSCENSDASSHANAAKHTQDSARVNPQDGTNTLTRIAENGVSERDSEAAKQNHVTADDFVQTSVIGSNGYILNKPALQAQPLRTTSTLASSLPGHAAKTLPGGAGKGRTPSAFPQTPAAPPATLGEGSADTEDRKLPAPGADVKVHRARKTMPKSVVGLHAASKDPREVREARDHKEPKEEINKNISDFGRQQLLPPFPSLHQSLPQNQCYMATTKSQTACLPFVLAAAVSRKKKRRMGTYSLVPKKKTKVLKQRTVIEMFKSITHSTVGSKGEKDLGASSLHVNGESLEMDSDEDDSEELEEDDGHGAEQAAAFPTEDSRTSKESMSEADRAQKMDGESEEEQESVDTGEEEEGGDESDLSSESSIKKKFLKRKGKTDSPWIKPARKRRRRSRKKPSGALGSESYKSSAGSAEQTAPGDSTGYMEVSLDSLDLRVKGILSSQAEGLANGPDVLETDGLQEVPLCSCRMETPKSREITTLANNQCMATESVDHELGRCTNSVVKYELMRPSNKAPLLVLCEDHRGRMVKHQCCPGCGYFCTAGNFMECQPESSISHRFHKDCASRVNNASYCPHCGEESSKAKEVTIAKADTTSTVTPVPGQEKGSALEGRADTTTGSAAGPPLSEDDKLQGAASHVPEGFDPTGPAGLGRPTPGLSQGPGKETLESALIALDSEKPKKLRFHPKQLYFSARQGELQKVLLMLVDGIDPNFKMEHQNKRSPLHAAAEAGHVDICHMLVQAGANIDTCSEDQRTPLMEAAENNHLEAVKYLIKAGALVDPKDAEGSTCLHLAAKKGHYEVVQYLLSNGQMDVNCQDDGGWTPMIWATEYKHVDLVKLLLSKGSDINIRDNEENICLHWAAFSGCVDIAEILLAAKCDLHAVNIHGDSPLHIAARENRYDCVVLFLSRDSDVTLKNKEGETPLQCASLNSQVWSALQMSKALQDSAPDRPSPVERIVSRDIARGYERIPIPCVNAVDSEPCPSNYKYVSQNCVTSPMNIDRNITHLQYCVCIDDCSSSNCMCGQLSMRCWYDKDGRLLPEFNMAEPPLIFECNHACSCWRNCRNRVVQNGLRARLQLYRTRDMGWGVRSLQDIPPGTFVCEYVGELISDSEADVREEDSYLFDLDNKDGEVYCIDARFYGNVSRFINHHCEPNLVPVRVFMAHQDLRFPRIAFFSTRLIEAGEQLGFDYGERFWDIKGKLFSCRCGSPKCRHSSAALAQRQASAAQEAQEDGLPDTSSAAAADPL", "assay": "Selectivity interaction (Methyltransferase screen (Scintillation proximity assays)) EUB0000255b EHMT1"}, "[3]": {"biological_target": "Hepatocyte growth factor receptor (Homo sapiens, UniProt P08581)", "sequence (P08581 whole entry)": "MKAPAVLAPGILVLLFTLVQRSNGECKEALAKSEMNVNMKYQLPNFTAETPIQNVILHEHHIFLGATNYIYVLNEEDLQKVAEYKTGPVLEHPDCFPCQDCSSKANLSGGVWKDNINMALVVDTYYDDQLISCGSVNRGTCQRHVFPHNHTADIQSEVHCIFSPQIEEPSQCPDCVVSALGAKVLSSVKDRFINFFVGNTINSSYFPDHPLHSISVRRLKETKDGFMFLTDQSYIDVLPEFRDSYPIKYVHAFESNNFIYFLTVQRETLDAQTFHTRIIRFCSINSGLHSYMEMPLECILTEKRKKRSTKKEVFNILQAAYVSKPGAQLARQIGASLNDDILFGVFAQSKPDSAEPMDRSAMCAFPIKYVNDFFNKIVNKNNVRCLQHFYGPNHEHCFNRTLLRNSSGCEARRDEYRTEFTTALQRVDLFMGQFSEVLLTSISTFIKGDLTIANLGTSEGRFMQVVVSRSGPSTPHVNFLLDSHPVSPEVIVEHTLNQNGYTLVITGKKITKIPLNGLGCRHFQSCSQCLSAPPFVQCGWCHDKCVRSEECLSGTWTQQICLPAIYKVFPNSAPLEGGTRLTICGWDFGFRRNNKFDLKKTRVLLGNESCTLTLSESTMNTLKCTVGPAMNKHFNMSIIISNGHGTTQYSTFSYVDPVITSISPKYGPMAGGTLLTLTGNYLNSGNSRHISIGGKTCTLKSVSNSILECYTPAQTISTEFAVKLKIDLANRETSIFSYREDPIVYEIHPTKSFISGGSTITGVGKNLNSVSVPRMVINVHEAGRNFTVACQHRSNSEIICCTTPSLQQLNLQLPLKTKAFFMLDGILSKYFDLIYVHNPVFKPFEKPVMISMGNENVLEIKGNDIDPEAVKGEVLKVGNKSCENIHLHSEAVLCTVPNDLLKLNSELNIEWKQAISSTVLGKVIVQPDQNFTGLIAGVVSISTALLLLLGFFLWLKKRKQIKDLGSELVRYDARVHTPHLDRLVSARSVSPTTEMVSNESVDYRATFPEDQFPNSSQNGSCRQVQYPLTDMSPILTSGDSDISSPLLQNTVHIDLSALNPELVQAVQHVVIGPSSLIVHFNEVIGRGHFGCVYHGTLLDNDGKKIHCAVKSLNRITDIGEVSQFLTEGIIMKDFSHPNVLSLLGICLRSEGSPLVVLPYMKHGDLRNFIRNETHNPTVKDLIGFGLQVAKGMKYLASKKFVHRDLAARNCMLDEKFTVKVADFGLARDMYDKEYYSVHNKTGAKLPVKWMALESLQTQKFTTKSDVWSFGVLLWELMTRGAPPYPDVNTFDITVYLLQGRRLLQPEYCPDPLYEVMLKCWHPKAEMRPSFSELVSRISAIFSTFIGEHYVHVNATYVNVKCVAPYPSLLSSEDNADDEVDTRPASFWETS", "assay": "Selectivity interaction (Millipore kinase profiler) EUB0000124b MET", "conditions": "at 10 µM"}, "[4]": {"biological_target": "T2, Serine/threonine-protein kinase tousled-like 1 (Homo sapiens) (UniProt Q9UKI8)", "T2 sequence (whole entry)": "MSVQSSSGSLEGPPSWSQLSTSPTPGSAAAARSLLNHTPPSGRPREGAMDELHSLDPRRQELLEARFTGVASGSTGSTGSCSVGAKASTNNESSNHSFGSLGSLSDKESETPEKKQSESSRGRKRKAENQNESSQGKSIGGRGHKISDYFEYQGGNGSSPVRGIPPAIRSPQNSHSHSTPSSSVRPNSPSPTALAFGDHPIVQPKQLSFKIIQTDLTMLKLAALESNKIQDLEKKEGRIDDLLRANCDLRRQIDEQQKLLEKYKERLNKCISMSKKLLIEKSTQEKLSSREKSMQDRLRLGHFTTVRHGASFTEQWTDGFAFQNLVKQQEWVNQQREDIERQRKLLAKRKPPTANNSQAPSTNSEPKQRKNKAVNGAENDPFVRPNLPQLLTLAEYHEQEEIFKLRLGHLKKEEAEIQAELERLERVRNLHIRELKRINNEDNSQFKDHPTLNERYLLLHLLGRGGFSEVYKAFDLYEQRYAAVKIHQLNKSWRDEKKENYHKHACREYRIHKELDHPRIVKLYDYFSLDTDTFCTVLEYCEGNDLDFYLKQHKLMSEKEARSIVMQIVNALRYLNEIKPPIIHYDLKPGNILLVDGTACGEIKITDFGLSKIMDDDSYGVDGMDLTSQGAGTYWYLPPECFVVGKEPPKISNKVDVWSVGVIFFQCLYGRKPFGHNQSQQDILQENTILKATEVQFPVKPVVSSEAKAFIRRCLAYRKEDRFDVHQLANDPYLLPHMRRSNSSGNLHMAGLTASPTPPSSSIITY", "assay": "Selectivity interaction (ActivX KiNativ screen (ex vivo kinase selectivity in human PBMCs)) EUB0001619a TLK1", "assay_type": "cell-based", "conditions": "PBMC, at 1 µM"}, "[5]": {"system": "Epidermal growth factor receptor (Homo sapiens), P00533 [UNDEFINED MUTATION]", "sequence (P00533 whole entry, looked up, change not shown)": "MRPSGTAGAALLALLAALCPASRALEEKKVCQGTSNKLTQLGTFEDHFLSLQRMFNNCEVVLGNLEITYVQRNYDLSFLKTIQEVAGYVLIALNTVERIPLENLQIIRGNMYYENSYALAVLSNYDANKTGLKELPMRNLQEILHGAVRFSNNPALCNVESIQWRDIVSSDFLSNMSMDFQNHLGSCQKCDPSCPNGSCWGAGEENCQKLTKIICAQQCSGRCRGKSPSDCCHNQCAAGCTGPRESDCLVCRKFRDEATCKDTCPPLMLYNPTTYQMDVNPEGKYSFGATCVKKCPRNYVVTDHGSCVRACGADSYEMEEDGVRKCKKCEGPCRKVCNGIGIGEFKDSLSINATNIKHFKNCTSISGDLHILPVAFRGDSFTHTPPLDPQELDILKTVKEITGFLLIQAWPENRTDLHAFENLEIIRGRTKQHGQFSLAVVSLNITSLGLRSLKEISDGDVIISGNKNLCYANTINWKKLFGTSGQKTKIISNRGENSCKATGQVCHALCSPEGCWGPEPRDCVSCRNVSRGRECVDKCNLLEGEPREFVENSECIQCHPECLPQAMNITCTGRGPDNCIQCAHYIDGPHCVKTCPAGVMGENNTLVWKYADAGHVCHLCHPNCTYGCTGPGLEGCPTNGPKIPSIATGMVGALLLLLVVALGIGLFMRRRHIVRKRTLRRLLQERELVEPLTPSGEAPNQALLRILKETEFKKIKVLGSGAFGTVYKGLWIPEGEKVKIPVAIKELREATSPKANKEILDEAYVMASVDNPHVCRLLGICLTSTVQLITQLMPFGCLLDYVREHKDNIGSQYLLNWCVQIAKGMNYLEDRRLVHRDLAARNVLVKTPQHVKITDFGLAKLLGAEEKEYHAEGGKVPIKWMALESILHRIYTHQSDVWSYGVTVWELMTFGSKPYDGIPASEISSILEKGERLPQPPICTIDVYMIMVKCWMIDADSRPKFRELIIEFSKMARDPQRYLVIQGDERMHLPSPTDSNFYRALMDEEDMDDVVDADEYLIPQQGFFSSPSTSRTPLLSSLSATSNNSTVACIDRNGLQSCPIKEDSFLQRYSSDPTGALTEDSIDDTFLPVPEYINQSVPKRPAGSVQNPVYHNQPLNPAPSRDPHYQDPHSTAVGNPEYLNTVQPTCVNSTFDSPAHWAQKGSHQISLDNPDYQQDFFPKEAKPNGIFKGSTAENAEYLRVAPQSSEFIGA", "assay": "Selectivity interaction (KinomeScan (DiscoverX)) EUB0001619a EGFR", "conditions": "at 1 µM"}, "[6]": {"biological_target": "Receptor-type tyrosine-protein kinase FLT3 (Homo sapiens) (UniProt P36888)", "sequence (P36888 whole entry)": "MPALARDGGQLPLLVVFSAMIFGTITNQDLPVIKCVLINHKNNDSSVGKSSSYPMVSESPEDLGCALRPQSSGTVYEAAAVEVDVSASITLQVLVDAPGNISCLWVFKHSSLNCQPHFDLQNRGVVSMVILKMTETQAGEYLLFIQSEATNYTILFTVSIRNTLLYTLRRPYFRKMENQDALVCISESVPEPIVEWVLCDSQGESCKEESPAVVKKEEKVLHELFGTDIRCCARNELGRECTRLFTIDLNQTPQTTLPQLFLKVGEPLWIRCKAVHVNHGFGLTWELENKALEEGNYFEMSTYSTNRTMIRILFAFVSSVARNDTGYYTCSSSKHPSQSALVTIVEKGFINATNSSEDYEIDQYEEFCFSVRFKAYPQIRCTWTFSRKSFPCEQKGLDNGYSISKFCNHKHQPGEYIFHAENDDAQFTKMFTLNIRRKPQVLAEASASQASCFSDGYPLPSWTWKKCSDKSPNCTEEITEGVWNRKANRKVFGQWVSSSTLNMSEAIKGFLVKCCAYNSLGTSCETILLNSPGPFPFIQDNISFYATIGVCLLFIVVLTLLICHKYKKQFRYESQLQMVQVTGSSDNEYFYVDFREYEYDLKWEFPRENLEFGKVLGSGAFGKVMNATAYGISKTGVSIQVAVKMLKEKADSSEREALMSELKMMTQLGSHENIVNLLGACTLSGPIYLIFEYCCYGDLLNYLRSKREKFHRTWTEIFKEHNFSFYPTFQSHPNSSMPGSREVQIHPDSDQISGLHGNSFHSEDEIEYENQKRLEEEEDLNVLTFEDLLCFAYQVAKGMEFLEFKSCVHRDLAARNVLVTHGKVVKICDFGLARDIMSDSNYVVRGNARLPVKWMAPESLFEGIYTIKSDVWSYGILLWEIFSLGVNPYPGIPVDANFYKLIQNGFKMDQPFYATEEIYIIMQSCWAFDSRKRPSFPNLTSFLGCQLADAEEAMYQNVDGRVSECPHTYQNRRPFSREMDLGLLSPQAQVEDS", "assay": "Selectivity interaction (KinomeScan (DiscoverX)) EUB0001049a FLT3", "conditions": "at 1 µM"}, "Mu-type opioid receptor": {"biological_target": "Mu-type opioid receptor (Homo sapiens, UniProt P35372)", "sequence (P35372 whole entry)": "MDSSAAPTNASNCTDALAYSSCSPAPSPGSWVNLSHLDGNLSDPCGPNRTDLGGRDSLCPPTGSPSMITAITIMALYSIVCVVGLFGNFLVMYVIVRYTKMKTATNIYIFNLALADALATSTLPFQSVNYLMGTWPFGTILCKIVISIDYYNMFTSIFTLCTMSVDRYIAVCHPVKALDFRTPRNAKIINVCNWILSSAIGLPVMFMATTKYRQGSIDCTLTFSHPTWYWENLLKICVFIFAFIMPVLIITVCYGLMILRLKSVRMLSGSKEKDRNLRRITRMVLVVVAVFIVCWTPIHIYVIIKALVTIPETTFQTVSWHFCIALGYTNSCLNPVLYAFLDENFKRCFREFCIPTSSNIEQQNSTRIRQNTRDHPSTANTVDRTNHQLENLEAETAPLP", "assay": "Selectivity interaction (Panel of kinases, GPCRs, ion channels and transporters (enzymatic assay)) EUB0000223bCl OPRM1"}, "[7]": {"biological_target": "MAP kinase-interacting serine/threonine-protein kinase 2 (Homo sapiens, UniProt Q9HBH9)", "sequence (Q9HBH9 whole entry, looked up)": "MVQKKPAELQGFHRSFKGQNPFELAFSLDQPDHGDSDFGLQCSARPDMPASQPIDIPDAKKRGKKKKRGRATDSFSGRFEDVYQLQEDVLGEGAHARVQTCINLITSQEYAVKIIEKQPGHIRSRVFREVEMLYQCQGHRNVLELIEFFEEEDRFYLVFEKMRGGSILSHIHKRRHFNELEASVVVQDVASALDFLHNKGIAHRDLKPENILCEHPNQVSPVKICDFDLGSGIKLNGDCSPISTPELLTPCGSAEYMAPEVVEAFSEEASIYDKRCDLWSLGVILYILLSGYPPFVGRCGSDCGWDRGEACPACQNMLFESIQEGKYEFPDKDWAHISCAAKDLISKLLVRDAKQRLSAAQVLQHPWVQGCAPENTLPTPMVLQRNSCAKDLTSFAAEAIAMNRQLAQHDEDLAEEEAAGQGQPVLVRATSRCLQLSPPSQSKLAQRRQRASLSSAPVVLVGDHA", "assay": "Selectivity interaction (KinomeScan (DiscoverX)) EUB0000666a MKNK2", "conditions": "at 10 µM"}}}
{"smiles": "CN(C)C/C=C/C(=O)Nc1ccc(C(=O)N2CCCC(Nc3ncc(Cl)c(-c4c[nH]c5ccccc45)n3)C2)cc1", "note": "(centres undefined)", "values": [{"measurement": "% of control", "setting": "[1]", "value": 100, "unit": "%"}]}
{"smiles": "COCCN1CCC(c2cc(CN(C)C(=O)c3cccc(Oc4ccccc4)c3)ccn2)CC1", "values": [{"measurement": "% activity", "setting": "[2]; at 1 µM", "value": "> 95", "unit": "%"}, {"measurement": "% activity", "setting": "[2]; at 10 µM", "value": "> 90", "unit": "%"}]}
{"smiles": "CC(=O)Nc1cccc(-n2c(=O)n(C3CC3)c(=O)c3c(Nc4ccc(I)cc4F)n(C)c(=O)c(C)c32)c1", "values": [{"measurement": "% of control", "setting": "[3]", "value": 150, "unit": "%"}]}
{"smiles": "N#Cc1cccc(-c2c[nH]c3ncnc(N4CCOCC4)c23)c1", "values": [{"measurement": "% of inhibition", "setting": "[4]", "value": -4, "unit": "%"}, {"measurement": "% of control", "setting": "[5]", "value": 82, "unit": "%"}]}
{"smiles": "COc1cc(Nc2nc(C)cc(-c3cnn4nc(OC)ccc34)n2)cc(C(F)(F)F)c1", "values": [{"measurement": "% of control", "setting": "[6]", "value": 64, "unit": "%"}]}
{"smiles": "COc1cc(C(=O)N2CC[C@@H](O)[C@@H](N)C2)cc2nc(-c3cc4ccccc4n3CC3CC3)n(C)c12", "values": [{"measurement": "pXC50", "setting": "Mu-type opioid receptor", "value": "< 4", "unit": "M"}]}
{"smiles": "O=C(NOC[C@H](O)CO)c1ccc(F)c(F)c1Nc1ccc(I)cc1F", "values": [{"measurement": "% of control", "setting": "[7]", "value": 100, "unit": "%"}]}
